“Also recorded” adds a separate entry of the source.
Columns and labels:
human RAD51 [1] = molecular target: T1, human RAD51 (Homo sapiens, UniProt Q06609); experiment: Fluorescence polarization assay for RAD51 filament formation on fluorescein-labeled oligonucleotide; format: biochemical
T1 sequence (Q06609 1-339): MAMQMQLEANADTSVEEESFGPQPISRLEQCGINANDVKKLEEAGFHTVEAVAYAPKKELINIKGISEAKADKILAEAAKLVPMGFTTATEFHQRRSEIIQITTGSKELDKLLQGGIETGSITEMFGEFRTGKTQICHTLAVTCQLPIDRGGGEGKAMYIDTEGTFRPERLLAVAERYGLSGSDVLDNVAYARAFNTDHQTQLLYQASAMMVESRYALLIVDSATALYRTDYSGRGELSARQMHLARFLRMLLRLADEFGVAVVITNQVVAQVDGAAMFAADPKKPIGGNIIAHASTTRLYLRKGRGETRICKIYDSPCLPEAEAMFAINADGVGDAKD
Procedure: FIGS. 2A-2B. FIG. 2A, top: Schematic of protein filament formation monitored in vitro using a fluorescence polarization assay. FIG. 2A, bottom: Purified RAD51 protein (wild type or mutant F86E) were serially diluted. RecA (New England Biolabs) was used as a positive control. Proteins were added to a 5′terminal fluorescein conjugated oligonucleotide (45 bases of dT) at a 1 μM nucleotide concentration. The mixture was incubated at 37° C. for 30 minutes in 384-well plates containing a reaction buffer (30 mM Tris/acetate pH 7.5, 10 mM Mg^2+/acetate, 2 mM ATP, 0.1 mM DTT, 0.5 μM BSA). Fluorescence polarization was measured with a plate reader (filters: excitation=485 nm, emission=510 nm). FIG. 2B, top: Varying concentrations of 5′terminal fluorescein conjugated oligonucleotide were used to determine the threshold RAD51 concentration.
The assay of Example 2 was used to serve in the screen of a small-molecule chemical library for compounds that stimulate RAD51 filament formation. […] Multiple positive (+RAD51) and negative […] controls were tested, and these readings were tested using the statistical method described by Zhang et al. (1999), which evaluates the suitability of an HT assay. The assay as described has a Z-factor of 0.82, validating it as an excellent assay for HT screening.
The assay of Example 2 was used to serve in the screen of a small-molecule chemical library for compounds that inhibit RAD51 filament formation. […] FP readings were very reproducible with reaction volumes in the 10-100 μl range, and 100 μl was typically used. […] The assay was optimized such that the positive control FP reading was ˜50% of maximal reaction saturation; the RAD51 protein concentration was 0.3 uM and the fluorescein-labeled DNA is at 0.1 uM (nucleotide concentration). […] The average FP readings for positive control and negative control are 344 mP (SD=13.4) and 27 mP (SD=5.3), respectively. These readings were tested using the statistical method described by Zhang et al, which evaluates the suitability of an HT assay (Zhang et al., 1999). […]

human RAD51 [2] = molecular target: T1, human RAD51; experiment: Strand invasion (D-loop) assay; format: biochemical; conditions: 0.8 μM RAD51; buffer that does not support joint molecule formation (1 mM ATP, 1 mM MgOAc)
Procedure: FIGS. 6A-6B. Schematic of the strand invasion (D-loop) assay.
(§1) Conditions with scRAD51 additionally contained 110 nM scRAD54.

yeast DMC1 = molecular target: T2, yeast DMC1 (Saccharomyces cerevisiae, UniProt P25453); experiment: Strand invasion (D-loop) assay with DMC1 in place of RAD51; format: biochemical
T2 sequence (P25453 1-334): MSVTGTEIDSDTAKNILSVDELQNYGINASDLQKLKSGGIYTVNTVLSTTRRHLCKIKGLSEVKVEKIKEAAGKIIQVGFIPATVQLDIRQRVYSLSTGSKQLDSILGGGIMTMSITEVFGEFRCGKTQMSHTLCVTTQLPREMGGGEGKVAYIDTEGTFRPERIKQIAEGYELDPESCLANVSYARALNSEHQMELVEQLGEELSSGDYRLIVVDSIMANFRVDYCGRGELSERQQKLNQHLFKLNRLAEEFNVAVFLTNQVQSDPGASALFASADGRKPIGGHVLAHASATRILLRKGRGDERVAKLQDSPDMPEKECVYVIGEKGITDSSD
Procedure: as §1

[3] = test system: chicken lymphocyte DT40 cells; experiment: Clonogenic survival study in the presence of radiation; format: cell-based; conditions: compound added about 30 minutes after irradiation, 24 hours
Procedure: Single chicken lymphocyte DT40 cells were irradiated. Thirty minutes later, they were incubated with compound 45488 (also called compound 5253121) for 24 hours. Single cells were then plated (100, 1000, or 10000) in 6-well plates in media. Because DT40 cells are not adherent to plastic surfaces, the media included methylcellulose to provide viscosity. After 7-10 days, the resulting colonies are counted, and survival is reported as a colony-forming ability relative to un-irradiated cells.

[4] = molecular target: RecA protein (the bacterial ortholog of RAD51) (Escherichia coli, UniProt P0A7G6); conditions: RecA in place of RAD51
RecA protein (the bacterial ortholog of RAD51), sequence (P0A7G6 2-353): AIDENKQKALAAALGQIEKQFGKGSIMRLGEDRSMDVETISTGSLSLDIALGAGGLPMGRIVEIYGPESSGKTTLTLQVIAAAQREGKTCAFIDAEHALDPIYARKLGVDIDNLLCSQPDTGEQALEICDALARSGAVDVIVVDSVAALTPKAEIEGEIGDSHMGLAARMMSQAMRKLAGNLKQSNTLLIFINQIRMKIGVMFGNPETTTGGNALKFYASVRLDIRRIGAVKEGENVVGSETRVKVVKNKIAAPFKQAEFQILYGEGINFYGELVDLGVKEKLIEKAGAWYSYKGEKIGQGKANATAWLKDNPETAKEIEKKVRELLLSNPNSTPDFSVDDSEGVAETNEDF
Procedure: RAD51 filament formation can also be studied using oligonucleotides that are end-labeled with a fluorescent tag. Binding of proteins to this substrate DNA can be detected as an increase in anisotropy (or polarization) of the fluorescent tag. […] In this example, this method was modified so that very small sample volumes (30 μl) can be monitored in a high-throughput scale, using 384-well plates and a fluorescent plate reader. […] By varying the amount of substrate DNA, a threshold of approximately 0.1 μM RAD51 protein is required for in vitro filament formation in this system.
A naïve 10,000 compound library of small molecules (Chembridge DIVERSet collection) was screened. A ‘mixed compound’ screening strategy was used, wherein each reaction tested a mixture of 8 compounds.

bacterial RecA = bacterial RecA (Escherichia coli, UniProt P0A7G6)
bacterial RecA, sequence (P0A7G6 whole entry): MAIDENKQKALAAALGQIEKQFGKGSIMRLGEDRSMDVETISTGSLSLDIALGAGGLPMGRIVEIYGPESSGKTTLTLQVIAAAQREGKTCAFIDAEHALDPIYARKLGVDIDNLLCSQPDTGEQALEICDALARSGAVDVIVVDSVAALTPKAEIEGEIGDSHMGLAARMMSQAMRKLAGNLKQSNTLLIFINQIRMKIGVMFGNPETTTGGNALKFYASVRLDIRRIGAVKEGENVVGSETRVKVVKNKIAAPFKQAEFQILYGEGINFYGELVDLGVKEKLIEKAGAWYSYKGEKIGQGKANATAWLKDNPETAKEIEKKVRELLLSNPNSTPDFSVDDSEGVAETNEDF
Procedure: Briefly, 15 μl reaction volumes included a DNA strand exchange protein (0.8 μM) that was pre-incubated for 5 min at 37° C. with 1 μM (nucleotide concentration) ^32P-labeled oligonucleotide in a reaction buffer containing 20 mM Hepes (pH 7.5), 1 mM DTT, 2 mM nucleotide cofactor, and 1 mM MgCl2, and various concentrations of RS-1. For experimental buffer conditions that included calcium, 1 mM CaCl2 was present in addition to (in the case of hRAD51) or in the place of (in the case of RecA and scRAD51) the 1 mM MgCl2. Conditions with scRAD51 additionally contained 110 nM scRAD54. Following this initial binding reaction, 10 μl of 19.75 μM (base pair concentration) supercoiled homolog-containing target plasmid DNA (pRS306) was next added along with sufficient magnesium acetate to give a final concentration of 10 mM. DNA substrates were allowed form a homology dependent association (or ‘D-loop’), and reactions were stopped with SDS and proteinase K. The resulting DNA was separated on 1.3% agarose gels, transferred onto nitrocellulose membranes, analyzed by phosphorimaging, and quantified with ImageJ 1.37v software (NIH).
These experiments were repeated using other recombinase proteins (bacterial RecA and yeast DMC1) in the place of human RAD51.

## O=C(Nc1ccc(Br)cc1)c1ccc(Br)c(S(=O)(=O)NCc2ccccc2)c1 [compound 45488]
Human RAD51 [1]; buffers containing high salt concentrations
  stability of RAD51 filaments in high salt: protects these filaments from buffers containing high salt concentrations; also recorded: stabilizes RAD51 filaments in the presence of high salt concentrations
Human RAD51 [1]; compound at 20 μM
  effect on RAD51 filament formation: enhances filament formation
Human RAD51 [1]; further study
  effect on RAD51 filament formation: enhances RAD51 filament formation
Human RAD51 [2]
  joint molecule formation / DNA strand invasion activity of RAD51: capable of stimulating DNA strand invasion activity of RAD51; also recorded: concentration dependent increase in joint molecule formation
Yeast DMC1
  effect on strand invasion by DMC1: some inhibition
[3]
  protection of cells from radiation (colony-forming ability): protects the cells from radiation damage
[4]
  stimulation of RecA filament formation: no stimulation of filament formation
Bacterial RecA
  effect on strand invasion by RecA: no effect
